Here are results for twelve molecules from US20260265304A1, “PEPTIDE INHIBITORS OF FOCAL ADHESION KINASE ACTIVITY AND USES THEREOF” (Arizona Board of Regents on Behalf of the University of …, priority 2019, published 2026).

For experiment [1], the target named is T1, FAK FAT domain (biotinylated Avitag-FAT protein) (Homo sapiens, UniProt Q05397).
T1 construct: biotinylated Avitag-FAT protein was diluted in running buffer
T1 sequence (Q05397 914-1045 limits assumed): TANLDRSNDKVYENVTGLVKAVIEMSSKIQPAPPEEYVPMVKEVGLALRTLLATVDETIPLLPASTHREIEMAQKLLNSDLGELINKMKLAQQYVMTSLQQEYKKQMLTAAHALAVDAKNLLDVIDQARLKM
The experiment can be described thus: Surface plasmon resonance (SPR) binding to immobilised FAT protein. The conditions noted are these: for Kd: FAT protein immobilised, peptide 200 μM-0.01 μM, 1:1 binding model; for binding and inhibitory properties (SPR/FP) in words, compared to 1907: SAR discussion of SPR and FP data. The protocol:
SPR binding studies were performed on a ForteBio Pioneer FE SPR system. In brief, a SADH Streptavidin in Dextran Hydrogel biosensor (ForteBio) was docked onto the flow cell and preconditioned with two injections of 10 mM NaOH, 1 M NaCl for 1 min at 50 μL/min. […] Empty channel 2 served as the reference control. After achieving a stable baseline, a concentration series (200 μM-0.01 μM) of peptide was prepared in final running buffer (100 mM Tris-HCl, 200 mM NaCl, 0.05% Tween-20, 5% DMSO) and injected using the OneStep gradient injection method at a flow rate of 75 μL/min. […] Raw SPR data were appropriately processed in Qdat software (ForteBio) by normalizing the baseline prior to injection, aligning the channels, subtraction of the reference channel, and blank subtraction. Kinetic data were fitted to a pseudo-first order 1:1 interaction binding model using to calculate KD. In addition, a steady-state model and Req data points were used to validate the binding affinity. Visual inspection of the SPR sensograms was performed to verify appropriate model fitting, lack of mass transport effects, return to baseline, and lack of irregular kinetics.
(In general: SPR reads the build-up and loss of mass on a sensor chip optically.)

Experiment [2] concerns the target T2, FAK FAT domain (paxillin-FAT binding) (Homo sapiens, UniProt Q05397).
T2 construct: FP Buffer containing 20 μM FAT and 0.1 μM TAMRA-LD2
T2 sequence (Q05397 914-1045 limits assumed): T1 sequence (Q05397 914-1045 limits assumed)
Briefly: Competition fluorescence polarization (FP) assay, inhibition of TAMRA-LD2 binding to FAT. The conditions noted are these: read-out: FP Ki. The protocol:
The FP assay buffer used was 20 mM Tris, 200 mM NaCl, 0.05% β-me, 0.1% Triton X-100, 5% glycerol, and 1× Halt protease inhibitor cocktail. […] Bodipy TMR FP optical module (2100-4100) was used as the mirror.
Wells with no FAT were used as a baseline value which was subtracted from the raw values to produce ΔmP values. The plate was read at every hour for four hours to test for time differences in IC50. The titration data was processed through GraphPad Prism to produce a dose response curve and a calculated IC50 with standard error (SE). A four-parameter dose-response inhibition model was utilized and the bottom fit was constrained to the lower plateau of the curve. Ki was determined from the following calculation:
P0 is the concentration of free protein and KD is calculated from the saturation curve. 150 is calculated by the following equation:
where PT is the total protein concentration, LT is the total labeled-ligand concentration, P0 is the positive root of P0^2+(KD+LT)*P0−PT, PL0=P−P0, PL50=PL0/2, L0=LT-PL0, and L50=LT-PL50.

Read-outs that look alike come from different tables or passages of the source. Positions of bridges follow the written chain, without caps; N, C: chain ends. Non-standard residues stand in square brackets, D forms with d. Residues, ends and D or L forms follow the SMILES beside them. *: point of attachment. Myristoyl = CCCCCCCCCCCCCC(=O)*; R8 = C=CCCCCCC[C@@](C)(N)C(=O)O; S5 = C=CCCC[C@](C)(N)C(=O)O

Take `CC(=O)N[C@@H](CC(N)=O)C(=O)N[C@@H](CC(C)C)C(=O)N[C@@H](CO)C(=O)N[C@]1(C)CCCCCCC=CCCC[C@@](C)(C(=O)N[C@@H](CC(C)C)C(=O)N[C@@H](CC(N)=O)C(N)=O)NC(=O)[C@H](CC(C)C)NC(=O)[C@H](CC(C)C)NC(=O)[C@H](CC(C)C)NC(=O)[C@H](CCCNC(=N)N)NC(=O)[C@H](CC(=O)O)NC(=O)[C@H](CC(C)C)NC1=O` [Peptide 1905, Ac-NLSR8LDRLLLS5LN-NH2] (Ac-NLS[R8]LDRLLL[S5]LN-NH2; staple 4-11): in experiment [1] (read-out: SPR KD), the dissociation constant (Kd) (commonly the constant that tells how readily two partners part at equilibrium) was above 200 µM. Also, the “binding and inhibitory properties (SPR/FP) in words, compared to 1907” value in experiment [1] is “no binding and inhibitory properties”.

In the case of `CC(C)C[C@@H]1NC(=O)[C@H](CCCNC(=N)N)NC(=O)[C@H](CC(=O)O)NC(=O)[C@H](CC(C)C)NC(=O)[C@](C)(NC(=O)[C@H](CO)NC(=O)[C@H](CC(C)C)NC(=O)[C@@H](N)CC(N)=O)CCCCCCC=CCCC[C@@](C)(C(=O)N[C@@H](CC(C)C)C(=O)N[C@@H](CC(N)=O)C(N)=O)NC(=O)[C@H](CC(N)=O)NC(=O)[C@H](CC(C)C)NC1=O` [Peptide 1906, H-NLSR8LDRLLNS5LN-NH2] (H-NLS[R8]LDRLLN[S5]LN-NH2; staple 4-11), the Ki (in general, a dissociation constant, usually derived from enzyme kinetics or from competition with a known ligand) in experiment [2] was above 1250 µM. The equilibrium dissociation constant (Kd) in experiment [1] (read-out: SPR KD) is above 200 µM.

Take `CC(=O)N[C@@H](CC(N)=O)C(=O)N[C@@H](CC(C)C)C(=O)N[C@]1(C)CCCCCCC=CCCC[C@@](C)(C(=O)N[C@@H](CCC(N)=O)C(=O)N[C@@H](CC(C)C)C(=O)N[C@@H](CC(N)=O)C(N)=O)NC(=O)[C@H](CC(C)C)NC(=O)[C@H](CC(C)C)NC(=O)[C@H](CCCNC(=N)N)NC(=O)[C@H](CC(=O)O)NC(=O)[C@H](CC(C)C)NC(=O)[C@H](CCC(N)=O)NC1=O` [Peptide 1910, Ac-NLR8QLDRLLS5QLN-NH2] (Ac-NL[R8]QLDRLL[S5]QLN-NH2; staple 3-10): the Ki in experiment [2] was found to be 46.8 µM. The Kd in experiment [1] (read-out: SPR KD) amounted to 24.8 µM. In addition, the “binding and inhibitory properties (SPR/FP) in words, compared to 1907” value in experiment [1] is reported as “not as active as 1907”.

With `CC(=O)N[C@@H](CC(N)=O)C(=O)N[C@@H](CC(C)C)C(=O)NC(C)(C)C(=O)N[C@@H](CCC(=O)O)C(=O)N[C@@H](CC(C)C)C(=O)N[C@@H](CC(=O)O)C(=O)N[C@@H](CCCNC(=N)N)C(=O)N[C@@H](CC(C)C)C(=O)N[C@@H](CC(C)C)C(=O)NC(C)(C)C(=O)N[C@@H](CCC(=O)O)C(=O)N[C@@H](CC(C)C)C(=O)N[C@@H](CC(N)=O)C(N)=O` [Peptide 1912, Ac-NLAibELDRLLAibELN-NH2], the “binding and inhibitory properties (SPR/FP) in words, compared to 1907” value in experiment [1] was “lower activity compared to 1907”.

`CC(=O)N[C@@H](CC(=O)O)C(=O)N[C@@H](CC(C)C)C(=O)N[C@]1(C)CCCCCCC=CCCC[C@@](C)(C(=O)N[C@@H](CCC(=O)O)C(=O)N[C@@H](CC(C)C)C(=O)N[C@@H](CC(=O)O)C(N)=O)NC(=O)[C@H](CC(C)C)NC(=O)[C@H](CC(C)C)NC(=O)[C@H](CCCNC(=N)N)NC(=O)[C@H](CC(=O)O)NC(=O)[C@H](CC(C)C)NC(=O)[C@H](CCC(=O)O)NC1=O` [Peptide 1913, Ac-DLR8ELDRLLS5ELD-NH2] (Ac-DL[R8]ELDRLL[S5]ELD-NH2; staple 3-10): in experiment [2], the inhibitory constant (Ki) came to 21.8 µM. Besides, the dissociation constant Kd in experiment [1] (read-out: SPR KD) was found to be 13.7 µM.

With `CC(=O)N[C@@H](CC(N)=O)C(=O)N[C@@H](CC(C)C)C(=O)N[C@@H](CO)C(=O)N[C@@H](CCC(=O)O)C(=O)N[C@]1(C)CCCCCCC=CCCC[C@@](C)(C(=O)N[C@@H](CC(N)=O)C(N)=O)NC(=O)[C@H](CCC(=O)O)NC(=O)[C@H](CC(C)C)NC(=O)[C@H](CC(C)C)NC(=O)[C@H](CC(C)C)NC(=O)[C@H](CCCNC(=N)N)NC(=O)[C@H](CC(=O)O)NC1=O` [Peptide 1914, Ac-NLSER8DRLLLES5N-NH2] (Ac-NLSE[R8]DRLLLE[S5]N-NH2; staple 5-12), in experiment [1] (read-out: SPR KD), the dissociation constant (Kd) came out at 64.3 µM. Moreover, the “binding and inhibitory properties (SPR/FP) in words, compared to 1907” value in experiment [1] is on record as “limited activity compared to 1907”.

Turning to `CSCC[C@@H]1NC(=O)[C@H](CC(C)C)NC(=O)[C@H](CCC(=O)O)NC(=O)[C@H](CC(=O)O)NC(=O)[C@H](CC(C)C)NC(=O)[C@H](CCC(=O)O)NC(=O)[C@](C)(NC(=O)[C@@H](NC(=O)[C@H](C)NC(=O)[C@H](CO)NC(C)=O)[C@@H](C)O)CCCCCCC=CCCC[C@@](C)(C(=O)N[C@@H](CO)C(=O)N[C@@H](CC(C)C)C(=O)N[C@@H](CO)C(=O)N[C@@H](CC(=O)O)C(N)=O)NC1=O` [Peptide 1916, Ac-SATR8ELDELMS5SLSD-NH2] (Ac-SAT[R8]ELDELM[S5]SLSD-NH2; staple 4-11), in experiment [2], the Ki is 47.5 µM. Besides, the Kd in experiment [1] (read-out: SPR KD) was determined as 32.3 µM. Further, the “binding and inhibitory properties (SPR/FP) in words, compared to 1907” value in experiment [1] was “did not have comparable activity to LD2-derived 1907”.

Consider `CC(=O)N[C@@H](CO)C(=O)N[C@@H](C)C(=O)N[C@H](C(=O)N[C@@H](CCCNC(=N)N)C(=O)N[C@@H](CCC(=O)O)C(=O)N[C@@]1(C)CCCC=CCCC[C@@](C)(C(=O)N[C@@H](C)C(=O)N[C@@H](CO)C(=O)N[C@@H](CC(C)C)C(=O)N[C@@H](CO)C(=O)N[C@@H](CC(=O)O)C(N)=O)NC(=O)[C@H](CC(C)C)NC(=O)[C@H](CCC(=O)O)NC(=O)[C@H](CC(=O)O)NC1=O)[C@@H](C)O` [Peptide 1917, Ac-SATRES5DELS5ASLSD-NH2] (Ac-SATRE[S5]DEL[S5]ASLSD-NH2; staple 6-10), for which the Ki in experiment [2] is 6.72 µM. In addition, the Kd in experiment [1] (read-out: SPR KD) amounted to 4.9 µM. The “binding and inhibitory properties (SPR/FP) in words, compared to 1907” value in experiment [1] is reported as “similar, albeit lower activity than LD2-derived 1907”.

Turning to `CC(=O)N[C@@H](CC(N)=O)C(=O)N[C@@H](CC(C)C)C(=O)N[C@@H](CO)C(=O)N[C@@H](CCC(=O)O)C(=O)N[C@@]1(C)CCCC=CCCC[C@@](C)(C(=O)N[C@@H](CC(C)C)C(=O)N[C@@H](CCC(=O)O)C(=O)N[C@@H](CC(C)C)C(=O)N[C@@H](CC(N)=O)C(N)=O)NC(=O)[C@H](CC(C)C)NC(=O)[C@H](CCCNC(=N)N)NC(=O)[C@H](CC(=O)O)NC1=O` [Peptide 1919, Ac-NLSES5DRLS5LELN-NH2] (Ac-NLSE[S5]DRL[S5]LELN-NH2; staple 5-9), in experiment [2], the Ki came to 38.6 µM. The Kd in experiment [1] (read-out: SPR KD) came out at 68.9 µM. Besides, the “binding and inhibitory properties (SPR/FP) in words, compared to 1907” value in experiment [1] is recorded as “did not show much activity compared to 1907”.

For `CC(=O)N[C@]1(C)CCCCCCC=CCCC[C@@](C)(C(N)=O)NC(=O)[C@H](CC(C)C)NC(=O)[C@H](CC(C)C)NC(=O)[C@H](CCCNC(=N)N)NC(=O)[C@H](CC(=O)O)NC(=O)[C@H](CC(C)C)NC(=O)[C@H](CCC(=O)O)NC1=O` [Peptide 2011, Ac-R8ELDRLLS5-NH2] (Ac-[R8]ELDRLL[S5]-NH2; staple 1-8), the “binding and inhibitory properties (SPR/FP) in words, compared to 1907” value in experiment [1] was “no binding and inhibitory properties”.

`CC(=O)N[C@@H](CC(N)=O)C(=O)N[C@@H](CC(C)C)C(=O)N[C@]1(C)CCCCCCC=CCCC[C@@](C)(C(=O)N[C@@H](CCC(=O)O)C(=O)N[C@@H](CCC(=O)O)C(=O)N[C@@H](CC(N)=O)C(N)=O)NC(=O)[C@H](CC(C)C)NC(=O)[C@H](CC(C)C)NC(=O)[C@H](CCCNC(=N)N)NC(=O)[C@H](CC(=O)O)NC(=O)[C@H](CCC(=O)O)NC(=O)[C@H](CCC(=O)O)NC1=O` [Peptide 2014, Ac-NLR8EEDRLLS5EEN-NH2] (Ac-NL[R8]EEDRLL[S5]EEN-NH2; staple 3-10): in experiment [1], the “binding and inhibitory properties (SPR/FP) in words, compared to 1907” value was “completely no binding and inhibitory properties”.

Consider `CCCCCCCCCCCCCC(=O)NCCCC[C@@H]1NC(=O)[C@H](CC(=O)O)NC(=O)[C@H](CC(C)C)NC(=O)[C@H](CCC(=O)O)NC(=O)[C@](C)(NC(=O)[C@H](CC(C)C)NC(=O)[C@H](CC(N)=O)NC(C)=O)CCCCCCC=CCCC[C@@](C)(C(=O)N[C@@H](CCC(=O)O)C(=O)N[C@@H](CC(C)C)C(=O)N[C@@H](CC(N)=O)C(N)=O)NC(=O)[C@H](CC(C)C)NC(=O)[C@H](CC(C)C)NC1=O` [Peptide 2029, Ac-NLR8ELDK(myristoyl)LLS5ELN-NH2] (Ac-NL[R8]ELDK(Myristoyl)LL[S5]ELN-NH2; staple 3-10), for which the Kd in experiment [1] (SPR KD) came to 19.5 µM.
